The experiment deals with B16-F10 (B16) cells. Description: Bioassay Directed Fractionation (BDF) with B16 cell culture pigmentation assay. It counts as cell-based. The following applies: LC fraction (20 sec) of Orris root extract corresponding to the compound's peak, FIG. 2. As for the experimental part:
Sample extracts were prepared at 50 mg/ml in DMSO and sonicated for 20 min. Samples solutions were then filtered through 0.2 μm Whatman Anotop 25 syringe filter into autosampler vials for assay. The LC-MS system was modified to incorporate a 10:1 splitter that was positioned between the UV detector and MS ion source. The majority of LC effluent was directed to a Waters Fraction Collector II fitted with a 96-deep well plate into which fractions were collected by time at intervals of 20 sec/well for the first 32 minutes of each run (96 wells/run). The LC column was a XBridge Shield RP18, 5 μm, 4.6×250 mm maintained at ambient temperature (22° C.). The solvent program was ramped linearly as follows: 95% A/5% B at time 0, to 100% B at 30 min, hold at 100% B to 32 min, then to 95% A/5% B at 32.1 min and hold 95% A/5% B until 36 min. The flow rate was 0.8 mL/min and an injection volume of […] was used (0.5 mg solids/injection). Effluent from four consecutive LC runs was collected per plate (2 mg solids/plate). Plates were then dried under nitrogen at 40° C. to remove acetonitrile and residual water was removed by freeze drying. Plates were stored at −80° C. until to assayed for pigmentation response.
The results of the BDF are shown in FIG. 2, with LC-UV chromatogram A at 260 nm showing phytochemical peak profile, and time-aligned bar graph B (with each bar representing a fraction from the LC effluent collected for 20 seconds), showing pigmentation responses using B16 cell culture assay.
Primary cells and cell lines were grown in a humidified atmosphere of 5% CO2 at 37° C. […]
B16 cells (6000 cells/well) were pre-cultured in 96-well plates in DMEM medium supplemented with 10% FBS and 1% P/S for 24 hours. […] The absorbance at 405 nm was measured, and MTT (3-(4,5-dimethylthiazol-2-yl)-2,5-diphenyltetrazolium bromide) assay was performed to examine the viability of cells. […]

As for `COc1c2c(cc3occ(-c4ccc(O[C@@H]5O[C@H](CO)[C@@H](O)[C@H](O)[C@H]5O)cc4)c(=O)c13)OCO2` [germanaism B, Germanaism B], the pigmentation response result was “Increased pigmentation”.
Under `C=C1CC[C@H](C)C(C)(C)[C@@H]1/C=C/C(C)=C/CC[C@@]1(CO)[C@H](CCCO)/C(=C(/C)C=O)CC[C@]1(C)O` [iriflorental, Iriflorental] stands “reduced pigmentation”.
Under `CC1=CC[C@H](C)C(C)(C)[C@@H]1/C=C/C(C)=C/CC[C@@]1(CO)[C@H](CCCO)/C(=C(/C)C=O)CC[C@]1(C)O` [iripallidal, Iripallidal] stands “reduced pigmentation”.
